From the OligoGym collection
“And” between values parts separate entries of the source, which are not always exact repeats. Identical values can stand only once. After the bases stand the sugars from the 5' end (letter, count) and the backbone: PS all phosphorothioate, else s phosphorothioate and o phosphodiester by linkage. Methylation of C is not given here. e = 2'-O-(2-methoxyethyl) (MOE); d = 2'-deoxy (DNA)

Biological target: DGAT2
Details: ASO

| Sequence | target mRNA inhibition (HepG2, 2.5 µM) | target mRNA inhibition (HepG2, 10 µM) | target mRNA inhibition (HepG2, 0.12 µM) [%] |
| --- | --- | --- | --- |
| GCTTATCCTTGAGGGTCTCA (sugars e5 d10 e5, PS) | 82% and 77% and 88% | 94% and 89% and 95% |  |
| TAAATAACCCACAGACACCC (sugars e5 d10 e5, PS) |  |  | 6 |
| CTGGACAAGTCCTGCCCATC (sugars e3 d14 e3, PS) |  |  | 67 |
| CCCCCACTGTCAGTCTCTCC (sugars e5 d10 e5, PS) | 37% | 76% |  |
| CGACAGCGCAGGTCCTCCGT (sugars e5 d10 e5, PS) |  |  | 48 |
| TTCTTCTGGACCCATCGGCC (sugars e5 d10 e5, PS) |  |  | 44 |
| AAGTAAGCCTCGGTGTCCTC (sugars e5 d10 e5, PS) | 84% | 69% |  |
| GTGAAGTTCTATCCCTTGGC (sugars e5 d10 e5, PS) | 58% and 71% | 91% and 93% |  |
| CCAATGCCTAGGTCACAGTT (sugars e5 d10 e5, PS) | 91% | 83% |  |
| CATGGAGCTCAGAGACTCAG (sugars e3 d14 e3, PS) |  |  | 62 |
| TGATAGCATTGCCACTCCCA (sugars e5 d10 e5, PS) |  |  | 64 |
| CCCTGGGACTCAGTGTCCTC (sugars e5 d10 e5, PS) | 90% | 83% |  |
| GGCTGTCAGAGGCTACTGGC (sugars e5 d10 e5, PS) | 74% | 63% |  |
| GACTGCATTCTTGCCAGGCA (sugars e5 d10 e5, PS) |  |  | 60 |
| TATTTCTGGAACTTCTTCTG (sugars e5 d10 e5, PS) |  |  | 22 |
| TCCCCAATATCATACTATCT (sugars e5 d10 e5, PS) | 50% | 88% |  |
| CTCTCATTTCTTATCTTCAA (sugars e5 d10 e5, PS) | 70% | 93% |  |
| AGTTTGCTCAGTTCTTCCAA (sugars e5 d10 e5, PS) | 61% | 91% |  |
| GGCAGAGAAACTGGTCCTGC (sugars e5 d10 e5, PS) | 55% | 81% |  |
| CAGTTTCGGACCCACTGTGA (sugars e3 d14 e3, PS) |  |  | 58 |
| CTCAGTTCTTCCAACCAGTG (sugars e5 d10 e5, PS) | 83% and 68% | 93% and 91% |  |
| CCCACAGAAGAGCAAAGGCT (sugars e5 d10 e5, PS) | 76% and 74% | 94% and 92% |  |
| AGGGAAGCATGTGCAGCCTA (sugars e5 d10 e5, PS) | 72% and 66% | 87% and 90% |  |

| Sequence | target mRNA inhibition (HepG2, 2.5 µM) | target mRNA inhibition (HepG2, 10 µM) | target mRNA inhibition (HepG2, 0.12 µM) [%] |
| --- | --- | --- | --- |
| GGTATCCAAAGATATAGTTC (sugars e5 d10 e5, PS) |  |  | 43 |
| GGTCAGCAGGTTGTGTGTCT (sugars e3 d14 e3, PS) |  |  | 57 |
| GTGGTTGCAATGTTGCCATC (sugars e5 d10 e5, PS) | 83% and 81% and 76% | 92% and 84% and 91% |  |
| CTCCCATTCTTTGAAAGCAA (sugars e5 d10 e5, PS) | 30% | 54% |  |
| ACAGGACCCACTGGAGCACT (sugars e5 d10 e5, PS) |  |  | 79 |
| TGATTCTTACCTGCAATGAG (sugars e5 d10 e5, PS) |  |  | 22 |
| ACACACAATATCCATGGACT (sugars e5 d10 e5, PS) | 68% | 95% |  |
| GCTGAGAGAGACAATGAGTA (sugars e5 d10 e5, PS) |  |  | 54 |
| TCAGCCACCCAAGAAAAACC (sugars e5 d10 e5, PS) |  |  | 0 |
| AGGCCTCGGGAAGCACCTGG (sugars e5 d10 e5, PS) | 39% | 84% |  |
| AGAGGATGCTGGATCCAGTG (sugars e5 d10 e5, PS) |  |  | 45 |
| AAGTGAACCCTCACTTCCCA (sugars e5 d10 e5, PS) |  |  | 35 |
| GCAGCCTACAAGAGCCTGTT (sugars e5 d10 e5, PS) | 59% | 89% |  |
| CCTGTAGCTGCTTTTCCACC (sugars e5 d10 e5, PS) |  |  | 29 |
| TTCCATTTTTTACCCAACCT (sugars e5 d10 e5, PS) | 57% | 93% |  |
| TGGAGTAGGGCACCAGCCCC (sugars e5 d10 e5, PS) |  |  | 28 |
| TACTGACTTTTTCCTTCTTA (sugars e5 d10 e5, PS) |  |  | 39 |
| ACTGAGATGACCTGTAGCTG (sugars e5 d10 e5, PS) |  |  | 33 |
| AAATCCATGTCAGAGAGGCT (sugars e5 d10 e5, PS) | 64% | 92% |  |
| CAGGTTGTGTGTCTTCACCA (sugars e2 d13 e5, PS) |  |  | 62 |
| ACAGCGATGAGCCAGCA (sugars e3 d10 e4, PS) | 45% | 88% |  |
| GCCGTATGCCTGGGAACTTC (sugars e5 d10 e5, PS) |  |  | 29 |
| CCAGGCCAAGGCTGAGTCTG (sugars e5 d10 e5, PS) |  |  | 27 |
